# Assay results taken from US20220002309A1, “SSAO INHIBITORS AND USES THEREOF” (Metacrine, Inc., priority 2018, published 2022).
# Molecular target: T1, Recombinant Human SSAO/VAP-1/AOC3 (Homo sapiens, UniProt Q16853)
# T1 construct: purchased R&D systems 3957-AO
# T1 sequence (Q16853 1-763): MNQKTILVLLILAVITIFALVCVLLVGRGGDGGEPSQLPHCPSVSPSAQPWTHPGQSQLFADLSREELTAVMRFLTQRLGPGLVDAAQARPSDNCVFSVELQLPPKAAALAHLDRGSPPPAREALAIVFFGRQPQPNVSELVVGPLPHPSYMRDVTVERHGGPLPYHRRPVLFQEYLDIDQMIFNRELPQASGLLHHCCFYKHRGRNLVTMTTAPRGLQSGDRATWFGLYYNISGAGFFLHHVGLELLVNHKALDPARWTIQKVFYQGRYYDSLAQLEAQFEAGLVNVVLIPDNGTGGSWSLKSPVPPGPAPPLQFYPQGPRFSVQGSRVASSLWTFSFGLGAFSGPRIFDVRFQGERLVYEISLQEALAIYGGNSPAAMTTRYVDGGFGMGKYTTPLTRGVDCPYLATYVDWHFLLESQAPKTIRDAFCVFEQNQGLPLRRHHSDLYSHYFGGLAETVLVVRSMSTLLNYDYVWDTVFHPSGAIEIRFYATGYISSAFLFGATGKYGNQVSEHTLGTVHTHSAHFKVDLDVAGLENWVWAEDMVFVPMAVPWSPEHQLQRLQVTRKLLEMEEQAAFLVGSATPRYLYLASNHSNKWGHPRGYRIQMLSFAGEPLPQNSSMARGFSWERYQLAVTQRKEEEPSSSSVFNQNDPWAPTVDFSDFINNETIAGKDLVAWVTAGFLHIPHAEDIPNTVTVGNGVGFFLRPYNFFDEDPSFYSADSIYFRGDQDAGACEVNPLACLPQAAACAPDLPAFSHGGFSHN
# Experiment: Human Semicarbazide-Sensitive Amine Oxidase (SSAO) Assay
# Assay type: biochemical
# Settings: recombinant enzyme; 30 minutes preincubation at 37° C.; benzylamine substrate; Amplex Ultra Red/HRP fluorescence
# Procedure: Example B-1: Human Semicarbazide-Sensitive Amine Oxidase (SSAO) Assay
# Compounds were dissolved in DMSO to provide a Concentration Response Curve (CRC; at 500 times the final concentration) over a range of 6-10 dilutions.
# Recombinant Human SSAO/VAP-1/AOC3 (R&D systems; Catalog #3957-AO) was used to screen compound potency in vitro, according to previously described methods (J Pharmacol Exp Ther. 2013 November; 347(2):365-74). SSAO enzyme was suspended in 50 mM HEPES buffer to a working concentration of 2.5 μg/ml and 40 μL of this enzyme mixture was then added to each well of a F16 Black Maxisorp 96 well Plate (Nunc, Catalog #475515). Ten microliters of each test compound (at 5 times the final concentration) were added to each well, resulting in a final well volume of 50 μL of the enzyme and inhibitor mixture. The compounds were preincubated with the enzyme for 30 minutes at 37° C., prior to the addition of a 40 μL volume of Amplex Ultra Red (125 uM AUR; Molecular Probes, Catalog #A36006)/Horseradish peroxidase (2.5 U/ml HRP; Sigma-Aldrich Catalog #P8375) oxidase detection reagent containing cytochrome C (7.5 μM; Sigma-Aldrich Catalog #C7752). Cytochrome C was included in the AUR/HRP detection mixture to reduce the background fluorescence that can occur via the spontaneous redox reaction between AUR and HRP. The SSAO enzyme reaction was then initiated by adding 10 μL of the SSAO substrate, benzylamine (Sigma-Aldrich Catalog #B5136), and SSAO activity was measured in kinetic mode over a 30-120 minute sampling period (excit. 544 nm; emit 590 nm; cut off 570 nm; medium gain) to obtain IC50 values for enzyme activity in each treatment well.
row,IC50,SMILES
1,≤ 10 nM,"CO[C@H]1CC[C@H](NC(=O)C23CCC(c4ccc(OC/C(=C/F)CN)cc4)(CC2)CC3)CC1 [Compound 2.104, 4-(4-(((E)-2-(aminomethyl)-3-fluoroallyl)oxy)phenyl)-N-((1r,4r)-4-methoxycyclohexyl)bicyclo[2.2.2] octane-1-carboxamide]"
2,≤ 10 nM,"NC/C(=C\F)COc1ccc(C23CCC(C(=O)NC4(C(F)(F)F)CCOCC4)(CC2)CC3)cc1 [Compound 2.152, (E)-4-(4-((2-(aminomethyl)-3-fluoroallyl)oxy)phenyl)-N-(4-(trifluoromethyl)tetrahydro-2H-pyran-4-yl)bicyclo[2.2.2]octane-1-carboxamide]"
3,≤ 10 nM,"CO[C@H]1CC[C@H](NC(=O)C23CC(c4ccc(OC/C(=C/F)CN)cc4)(C2)C3)CC1 [Compound 3.04, 3-(4-(((E)-2-(aminomethyl)-3-fluoroallyl)oxy)phenyl)-N-((1r,4r)-4-methoxycyclohexyl)bicyclo[1.1.1] pentane-1-carboxamide]"
4,≤ 10 nM,"COCCO[C@H]1CC[C@H](NC(=O)C23CCC(c4ccc(OC/C(=C/F)CN)cc4)(CC2)CC3)CC1 [Compound 2.142, 4-(4-(((E)-2-(aminomethyl)-3-fluoroallyl)oxy)phenyl)-N-((1r,4r)-4-(2-methoxyethoxy)cyclohexyl)bicyclo [2.2.2]octane-1-carboxamide]"
5,≤ 10 nM,"COC1(CNC(=O)C23CCC(c4ccc(OC/C(=C/F)CN)cc4)(CC2)CC3)CCCCC1 [Compound 2.102, (E)-4-(4-((2-(aminomethyl)-3-fluoroallyl)oxy)phenyl)-N-((1-methoxycyclohexyl)methyl) bicyclo[2.2.2]octane-1-carboxamide]"

row,SMILES,IC50
1,"CC(C)(C)O[C@H]1C[C@@H](NC(=O)C23CCC(c4ccc(OC/C(=C/F)CN)cc4)(CC2)CC3)C1 [Compound 2.149, 4-(4-(((E)-2-(aminomethyl)-3-fluoroallyl)oxy)phenyl)-N-((1s,3s)-3-(tert-butoxy)cyclobutyl)bicyclo[2.2.2] octane-1-carboxamide]",≤ 10 nM
